The values below come from PubChem BioAssay (NCI).

The structures appear in SMILES notation.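 96-well plates; 48 h exposure; 5 concentrations. Endpoints by linear interpolation between flanking doses. Not reached: highest tested concentration assigned. Definition used: TGI = concentration required for complete inhibition of growth.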 A value given as a limit tells only on which side of the number the result lay.

Among the test systems are CCRF-CEM leukemia; HCT-116 colon; HS 578T breast; HT29 colon; IGROV1 ovarian; KM12 colon; M14 melanoma; MALME-3M melanoma; MDA-N; NCI-H226 lung; PC-3 prostate; U251 CNS; UACC-257 melanoma.
What all share (experiment): NCI anticancer screen, dose series, 48 h

Turning to `Cc1nn(C(=O)c2ccccc2O)c2c1C(c1ccc([N+](=O)[O-])cc1)SC(N)=N2` (stereo not drawn), the TGI is > 9.13 µM with CCRF-CEM leukemia; > 10 µM in the test with HCT-116 colon; > 10 µM in the test on HS 578T breast; > 10 µM in the test with HT29 colon; > 10 µM with IGROV1 ovarian; > 10 µM with KM12 colon. Moreover, the TGI is > 10 µM with M14 melanoma; > 10 µM with MALME-3M melanoma; > 10 µM in the test on MDA-N; > 9.22 µM in the test with NCI-H226 lung; > 10 µM in the test with PC-3 prostate; > 10 µM in the test with U251 CNS. In the test with UACC-257 melanoma, the TGI is > 10 µM.
As to `C/C(=C\CO)CC[C@@H]1[C@@]2(C)CCCC(C)(C)[C@@H]2CC[C@@]1(C)O`, the TGI in the test with CCRF-CEM leukemia is 51.5 µM; in the test with HCT-116 colon, 43.5 µM; in the test on HS 578T breast, 56.4 µM; in the test with HT29 colon, 51.2 µM; in the test on IGROV1 ovarian, 35.5 µM; in the test with KM12 colon, 43 µM. Also, the TGI in the test with M14 melanoma worked out at 53.6 µM; in the test with MALME-3M melanoma, 36.3 µM; with MDA-N, 38 µM; in the test on NCI-H226 lung it was 33.4 µM; in the test with PC-3 prostate, 30 µM; in the test with U251 CNS, 31 µM. In addition, the TGI with UACC-257 melanoma stood at 38 µM.
In the case of `CCCCCc1cc(CCCC)sc1-c1ccco1`, the TGI in the test on CCRF-CEM leukemia is > 75 µM; in the test with HCT-116 colon, > 73 µM; in the test on HS 578T breast, > 100 µM; with HT29 colon, > 100 µM; in the test with IGROV1 ovarian, > 100 µM; in the test with KM12 colon it was > 100 µM. Besides, the TGI in the test on M14 melanoma, in the test on MALME-3M melanoma, in the test on MDA-N, with NCI-H226 lung, in the test with PC-3 prostate and with U251 CNS was > 100 µM throughout. Besides, in the test on UACC-257 melanoma, the TGI was > 100 µM.
As for `Brc1ccc2[nH]cc(-c3csc(-c4c[nH]c5ccc(Br)cc45)n3)c2c1`, the TGI in the test on CCRF-CEM leukemia is 3.93 µM; with HCT-116 colon it was 3.26 µM; in the test with HS 578T breast, > 20.8 µM; with HT29 colon it was 3.16 µM; with IGROV1 ovarian it was 4.6 µM; in the test with KM12 colon it was 2.95 µM. Besides, the TGI in the test with M14 melanoma was determined as 2.87 µM; in the test on MALME-3M melanoma, 3.99 µM; in the test on MDA-N it was 5.95 µM; in the test on NCI-H226 lung, 5.1 µM; in the test with PC-3 prostate it was 4.44 µM; in the test on U251 CNS, 3.61 µM. Also, the TGI in the test with UACC-257 melanoma is 9.05 µM.
As to `Brc1ccc(/C(N=N/C(=N\Sc2ccccc2)c2ccc(Br)cc2)=N/Sc2ccccc2)cc1`, the TGI in the test with CCRF-CEM leukemia, with HCT-116 colon, in the test on HS 578T breast, in the test on HT29 colon, in the test on IGROV1 ovarian and in the test with KM12 colon was > 100 µM throughout. Further, the TGI in the test on M14 melanoma, in the test on MALME-3M melanoma, in the test with MDA-N, in the test on NCI-H226 lung, with PC-3 prostate and in the test on U251 CNS was > 100 µM throughout. For the same compound, the TGI in the test on UACC-257 melanoma was > 100 µM.
`COC(=O)[C@@H]1[C@H]2CC[C@]3(C)[C@@H](OC(C)=O)CC[C@H]3[C@@H]2CC[C@H]1C1(C)SCCS1`: the TGI was 86.4 µM with CCRF-CEM leukemia; 46.3 µM in the test on HCT-116 colon; 74.4 µM in the test with HS 578T breast; 30 µM in the test with HT29 colon; > 100 µM in the test on IGROV1 ovarian; 74.2 µM in the test with KM12 colon. Also, the TGI with M14 melanoma worked out at 44 µM; in the test with MALME-3M melanoma it was 38.9 µM; with MDA-N, 47.3 µM; with NCI-H226 lung it was 42.3 µM; in the test on PC-3 prostate, 86 µM; with U251 CNS it was 54.4 µM. This compound yielded a TGI with UACC-257 melanoma of 53.3 µM.
For the compound `CC(C)(C)C#CI1OC(=O)c2ccccc21`, the TGI in the test with CCRF-CEM leukemia is 6.09 µM; with HCT-116 colon it was 6.82 µM; with HS 578T breast, > 92.3 µM; with HT29 colon it was 22.8 µM; with IGROV1 ovarian it was 12 µM; with KM12 colon it was 18.4 µM. Besides, the TGI with M14 melanoma was found to be 15.3 µM; in the test on MALME-3M melanoma, 9.24 µM; in the test with MDA-N, 23.4 µM; in the test on NCI-H226 lung, 15.2 µM; with PC-3 prostate, 19.5 µM; in the test on U251 CNS, 11.2 µM. For the same compound, in the test with UACC-257 melanoma, the TGI was 25.7 µM.
For `CC12CCC(=O)[C@@]1(C)CCCC2=O` (stereo partly drawn), the TGI in the test with CCRF-CEM leukemia, in the test with HCT-116 colon, in the test on HS 578T breast, with HT29 colon, with IGROV1 ovarian and in the test on KM12 colon was > 100 µM in each case. Also, the TGI in the test on M14 melanoma, in the test with MALME-3M melanoma, in the test with MDA-N, in the test with NCI-H226 lung, with PC-3 prostate and with U251 CNS was > 100 µM each time. Besides, in the test on UACC-257 melanoma, the TGI is > 100 µM.
Turning to `Cc1cccc2c(N)c3cccc(C(=O)NCC[N+](C)(C)[O-])c3nc12`, the TGI in the test with CCRF-CEM leukemia is > 100 µM; in the test with HCT-116 colon it was > 100 µM; with HS 578T breast, 38.9 µM; with HT29 colon, 60.3 µM; with IGROV1 ovarian it was > 100 µM; with KM12 colon it was > 100 µM. The TGI in the test on M14 melanoma was 55 µM; in the test on MALME-3M melanoma it was 52.5 µM; in the test with MDA-N, 42.7 µM; in the test with NCI-H226 lung, 27.8 µM; in the test with PC-3 prostate, 60.4 µM; in the test on U251 CNS it was > 100 µM. For the same compound, the TGI with UACC-257 melanoma was 60.3 µM.
In the case of `CC(C)(C)[Si](C)(C)OC1CCOC1(O)c1ccccn1` (stereo not drawn), the TGI in the test on CCRF-CEM leukemia, in the test with HCT-116 colon, in the test with HS 578T breast, with HT29 colon, in the test on IGROV1 ovarian and in the test with KM12 colon was > 100 µM in each case. Besides, the TGI in the test on M14 melanoma, with MALME-3M melanoma, in the test with MDA-N, in the test with NCI-H226 lung, in the test with PC-3 prostate and in the test on U251 CNS was > 100 µM each time. For the same compound, the TGI in the test with UACC-257 melanoma is > 100 µM.
On to `N#Cc1ccnc(C(=O)N2CCCC2C(=O)O)c1` (stereo not drawn), for which the TGI with CCRF-CEM leukemia, in the test with HCT-116 colon, with HS 578T breast, in the test on HT29 colon, in the test with IGROV1 ovarian and in the test with KM12 colon was > 100 µM throughout. Besides, the TGI with M14 melanoma, with MALME-3M melanoma, in the test on MDA-N, in the test with NCI-H226 lung, with PC-3 prostate and with U251 CNS was > 100 µM in each case. Further, the TGI with UACC-257 melanoma is > 100 µM.
With `O=c1[nH]nc(-c2ccc([N+](=O)[O-])cc2)[nH]1`, the TGI in the test with CCRF-CEM leukemia, in the test on HCT-116 colon, in the test with HS 578T breast, in the test on HT29 colon, in the test on IGROV1 ovarian and in the test on KM12 colon was > 100 µM each time. The TGI with M14 melanoma, with MALME-3M melanoma, in the test with MDA-N, in the test with NCI-H226 lung, with PC-3 prostate and in the test on U251 CNS was > 100 µM throughout. Further, the TGI with UACC-257 melanoma is > 100 µM.
Take `CCOC(=O)OC1(c2ccccc2)CCN(C)CC1`: the TGI with CCRF-CEM leukemia, in the test with HCT-116 colon, in the test on HS 578T breast, with HT29 colon, in the test on IGROV1 ovarian and with KM12 colon was > 100 µM in each case. The TGI with M14 melanoma, with MALME-3M melanoma, with MDA-N, with NCI-H226 lung, in the test on PC-3 prostate and in the test with U251 CNS was > 100 µM each time. The TGI in the test on UACC-257 melanoma was > 100 µM.
For the compound `O=C(O)CCSc1ncnc2nc[nH]c12`, the TGI in the test on CCRF-CEM leukemia, in the test on HCT-116 colon, in the test with HS 578T breast, with HT29 colon, in the test with IGROV1 ovarian and with KM12 colon was > 100 µM throughout. Besides, the TGI in the test with M14 melanoma, with MALME-3M melanoma, in the test with MDA-N, in the test on NCI-H226 lung, in the test on PC-3 prostate and with U251 CNS was > 100 µM throughout. In the test with UACC-257 melanoma, the TGI is > 100 µM.
Take `O=C1c2cccnc2C(=O)c2c1nc1ccccc1c2-c1ccc2c3c(nc4ccccc42)C(=O)c2cccnc2-c13`: the TGI amounted to 15.5 µM in the test on CCRF-CEM leukemia; 1.73 µM with HCT-116 colon; 11.1 µM in the test on HS 578T breast; 7.57 µM in the test with HT29 colon; 1.39 µM with IGROV1 ovarian; 12.5 µM with KM12 colon. For the same compound, the TGI in the test on M14 melanoma amounted to 4.55 µM; in the test with MALME-3M melanoma it was 4.54 µM; with MDA-N, 8.82 µM; in the test with NCI-H226 lung, 7.55 µM; in the test on PC-3 prostate it was 37.2 µM; with U251 CNS it was 9.01 µM. In the test with UACC-257 melanoma, this compound registered a TGI of 5.38 µM.
As for `O/N=C/[C@H]1COC2(CCCCC2)O1`, the TGI in the test on CCRF-CEM leukemia, in the test with HCT-116 colon, in the test with HS 578T breast, with HT29 colon, in the test with IGROV1 ovarian and in the test on KM12 colon was > 100 µM throughout. Besides, the TGI in the test on M14 melanoma, with MALME-3M melanoma, in the test on MDA-N, in the test on NCI-H226 lung, in the test on PC-3 prostate and with U251 CNS was > 100 µM in each case. For the same compound, the TGI with UACC-257 melanoma was > 100 µM.
